Reference: PubChem BioAssay (NCI)
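Protocol summary: plate cells (96-well), add compound at 5 concentrations, incubate 48 h, interpolate endpoints linearly. GI50 marks 50% less growth. TGI denotes the concentration required for complete inhibition of growth.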

How the values were obtained:
Test in all cases: inhibition of tumour cell growth, NCI panel, 48 h
RPMI-8226 leukemia = system: RPMI-8226 leukemia
HOP-62 NSCLC = system: HOP-62 NSCLC
BT-549 breast = system: BT-549 breast
UACC-62 melanoma = system: UACC-62 melanoma
EKVX NSCLC = system: EKVX NSCLC
SK-MEL-28 melanoma = system: SK-MEL-28 melanoma
UO-31 renal = system: UO-31 renal
A549 NSCLC = system: A549 NSCLC
NCI-H522 lung = system: NCI-H522 lung
TK-10 renal = system: TK-10 renal

SMILES	TGI (RPMI-8226 leukemia) [µM]	TGI (HOP-62 NSCLC) [µM]	TGI (BT-549 breast) [µM]	TGI (UACC-62 melanoma) [µM]	TGI (EKVX NSCLC) [µM]	TGI (SK-MEL-28 melanoma) [µM]	TGI (UO-31 renal) [µM]	TGI (A549 NSCLC) [µM]	TGI (NCI-H522 lung) [µM]	GI50 (RPMI-8226 leukemia) [µM]	GI50 (HOP-62 NSCLC) [µM]	GI50 (BT-549 breast) [µM]	GI50 (EKVX NSCLC) [µM]	GI50 (SK-MEL-28 melanoma) [µM]	GI50 (TK-10 renal) [µM]	TGI (TK-10 renal) [µM]	GI50 (UO-31 renal) [µM]	GI50 (A549 NSCLC) [µM]	GI50 (NCI-H522 lung) [µM]	GI50 (UACC-62 melanoma) [µM]
Cc1c(O)c2ccccc2oc1=O	> 100	> 100	> 100	> 100	> 100	> 100	> 100	> 100	> 100	–	–	–	–	–	–	–	–	–	–	–
O=C1CC[C@H](N2C(=O)c3cccc4c(Cc5ccc(CN6CCOCC6)cc5)ccc2c34)C(=O)N1	> 100	> 100	> 100	–	> 100	> 100	> 100	> 100	> 100	9.18	52.3	17.3	17.9	75.1	> 100	> 100	48.7	52.6	12.3	–
CC[C@H](NC(=O)[C@H]1CCCCN1C)C(=O)N(C)[C@H](C[C@@H](OC(C)=O)c1nc(C(=O)N[C@@H](Cc2ccccc2)C[C@H](C)C(=O)O)cs1)C(C)C	> 14.3	> 14.3	0.473	> 14.3	> 14.3	–	> 14.3	> 14.3	0.337	0.00531	0.00673	0.00631	0.01	–	–	> 14.3	0.0741	0.0109	0.00284	0.00161
CC[C@H]1CN2CCc3cc(OC)c(OC)cc3C2C[C@@H]1CC1NCCc2cc(OC)c(OC)cc21 (some centres undefined)	0.128	0.0815	0.375	0.316	0.136	0.119	–	0.0523	0.0354	–	–	–	–	–	–	0.572	–	–	0.0127	–
COC1=CC(c2ccc[nH]2)=N/C1=C\c1[nH]c(C)c(CC(=O)OCc2ccccc2)c1CCC(=O)OCc1ccccc1	0.76	2.39	2.68	–	4.13	–	0.577	10.9	1.85	0.234	0.365	0.37	0.349	–	0.406	2.1	0.21	0.427	0.302	–
C[C@]12CCc3nc(Nc4cccc(O)c4)sc3C1=CC[C@@H]1[C@@H]2CC[C@]2(C)/C(=N\NC(N)=S)CC[C@@H]12	–	4.07	3.97	4.46	9.26	–	2.83	11.4	3.69	–	1.86	1.15	2.74	–	1.9	4.4	1.4	2.95	1.7	2.01
COc1ccc2sc3cccc(NCCN(C)C)c3c(=O)c2c1	5.16	10.7	18.6	3.24	–	5.3	6.97	7.15	10.1	2.22	3.57	5.4	–	2.26	4.06	14.3	2.06	2.57	2.79	1.76
Cn1cc(C2=C(c3ccccc3[N+](=O)[O-])C(=O)NC2=O)c2ccccc21	15.2	> 23.3	> 20.2	12.1	–	20.1	> 20.5	> 21.8	18.1	5.93	5.35	5.26	–	6.24	5.58	18.6	5.28	4.09	5.78	3.68
NCCCNc1nc2ccccc2c2c(=O)c3cc(F)cc(F)c3sc12	–	–	26.8	3.48	3.12	3.39	2.88	–	–	–	–	13	1.6	1.86	1.69	3.18	1.48	–	–	1.81
CN(C)c1ccc(/C=C/c2ccnc3c(O)cccc23)cc1	> 100	> 58.9	> 100	1.07	–	> 100	> 22.7	> 100	1.72	0.482	0.469	1.01	–	0.624	1.68	> 100	0.247	0.376	0.257	0.294
CCOC(=O)c1ccc2c(c1)Cc1cc([N+](=O)[O-])ccc1-2	> 100	> 100	94.2	> 100	50.6	> 100	> 100	> 100	–	–	–	–	–	–	–	86.5	–	–	–	–
Cc1cc(=O)[nH]c(N/N=C/c2cc(Br)ccc2O)n1	> 100	> 100	> 100	–	7.67	> 100	3.21	> 100	22	0.843	1.41	11	1.82	4.55	21.5	> 100	0.435	1.84	3.37	–
